Measurements published in US20060167106A1, “Compounds acting at the centrosome” (priority 2004, published 2006).
“Also recorded” adds a separate entry of the source. Non-standard residues stand in square brackets, D forms with d. Residues, ends and D or L forms follow the SMILES beside them. *: point of attachment. Nle = CCCC[C@H](N)C(=O)O; Nva = CCC[C@H](N)C(=O)O; Cbz = O=C(OCc1ccccc1)*

How the values were obtained:
[1] = tested on: CHO-α-tubulin-YFP cells; test: α-tubulin-YFP localization in CHO-α-tubulin-YFP cells (fluorescence imaging); type: cell-based, Chinese hamster; conditions: for accumulation of tubulin at the centrosomes versus in the nucleus (overall statement): cells treated, concentration not given; for accumulation of α-tubulin-YFP at the centrosomes: 5 hours; for accumulation of tubulin in the centrosomes (overall statement): CHO-tubulin-YFP cells, concentration and time not given
From the text: Wild-type Chinese Hamster Ovary cells (WT CHO) cells were maintained in Ham's F-12 medium supplemented with 10% fetal bovine serum (FBS; HyClone, Logan, Utah). Cells of low density (˜20%) growing on 2-well chambered cover-slips (Labtek (Campbell, Calif.) or Fisher Scientific) were transfected with a mammalian expression vector encoding α-tubulin-YFP (Clontech, Palo Alto, Calif.) with the use of FuGENE 6 (Roche Molecular Biochemicals, Indianapolis, Ind.), according to the manufacturer's instructions. Twenty-four hours after transfection, the cells were cultured in 400 μg/ml G418 (Invitrogen, Carlsbad, Calif.)-containing selection medium for 2 weeks. Living cells were examined using a fluorescent microscope for α-tubulin-YFP expression. Cells in single colonies containing microtubules labeled with α-tubulin-YFP were lifted and expanded in G418-containing medium. Expression of α-tubulin-YFP was confirmed by the presence of the tubulin-YFP labeled microtubule pattern identical to immunostained microtubule pattern of non-transfected cells, as well as by subjecting the cells to Western blot analysis using an anti-GFP antibody (Roche Molecular Biochemicals, Basel, Switzerland) and confirming the correct mass of the α-tubulin-YFP chimera protein. Expressed tubulin-YFP was detected as a single band in Western blots. The tubulin-YFP expressing cell lines (referred as CHO-α-tubulin-YFP cells) were used in the studies.
CHO-α-tubulin-YFP cells were cultured in 2-well chambered cover-slips (Labtek (Campbell, Calif.) or Fisher Scientific) 24 hours before treatment. For comparison of the centrosomal effects of treatment with Compound 1, Compound 1+Taxol, and Taxol, CHO-α-tubulin-YFP cells were treated with Compound 1, Compound 1+Taxol, Taxol, or equivalent concentrations of DMSO-containing media for various time periods before imaging. For comparison of the effects of Compound 1 and known proteasome inhibitors on centrosomes, the nucleus, and perinuclear regions, CHO-α-tubulin-YFP cells were treated with Compound 1, ALLN (Calbiochem, San Diego, Calif.), lactacystin (Calbiochem, San Diego, Calif.) or MG132 (Calbiochem, San Diego, Calif.), and imaged at various time points from 3 hours to 24 hours after treatment.
Tubulin-YFP fluorescence in living cells or fixed cells was captured using a standard filter for FITC and objectives of 20× or 60× magnification on a Nikon TE300 microscope with a Leica DC50 color digital camera (Leica, Bannockburn, Ill.) or a CoolSnap HQ Monochrome CCD camera (Photonetrics, Tucson, Ariz.). The Leica DC50 and CoolSnapHQ cameras were controlled with Leica DC50 software and MetaVue/MetaMorph software, respectively (Universal Imaging Corp, Downingtown, Pa.).
CHO-α-tubulin-YFP cells were cultured in 2-well chambered cover-slips (Labtek (Campbell, Calif.) or Fisher Scientific) 24 hours before treatment. For comparison of effects on the centrosome, nucleus, and perinuclear regions, cells were treated with Compound 1 and known proteasome inhibitors including ALLN, MG132, Lactacystin, MG115, clasto-Lactacystin β-Lactone (cLβL), and Epoxomicin (10 μM final concentration for all except ALLN, which was used at 100 μM final concentration) (proteasome inhibitors were from Calbiochem, San Diego, Calif.) and imaged at various time points up to 24 hours during treatment.
Tubulin-YFP fluorescence in living cells or fixed cells was captured using a standard filter for FITC and objectives of 20× or 60× magnification on the Nikon TE300 microscope/digital imaging system.

[2] = biological target: T1, bovine red blood cell 20S proteasome (Bos taurus, UniProt Q32KL2); test: 20S Proteasome Assay (in vitro, Suc-Leu-Val-Tyr-AMC); type: biochemical; conditions: isolated 20S proteasome
T1 construct: bovine red blood cell 20S proteasome; purchased Calbiochem; host or cells: purified from bovine red blood cells
Protocol: 190 μl of reaction buffer (500 mM HEPES, 10 nM EDTA, pH 7.6), containing 0.03% SDS was pre-incubated for 5 minutes at 37° C. in the presence of 0.2 μg of bovine red blood cell 20S proteasome (Calbiochem, San Diego, Calif.) for temperature equilibration. Subsequently, inhibitors or Compound 1 were added to the reaction mixture at a final DMSO concentration of 0.5%. The reaction was initiated by adding 10 μl of the peptide-AMC substrate (Calbiochem, San Diego, Calif.) to each well. The emitted fluorescence was then measured every third minute at 37° C. for 90 minutes by a fluorescence plate reader (FlexStation II, Molecular Devices, Sunnyvale, Calif.) at 460 nm (λex360 nm) wavelength.
The buffers and reagents for the assay were purchased from Calbiochem (20S Proteasome Assay Kit; Calbiochem, San Diego, Calif.). The principle of the assay is that the release of free AMC (7-Amino-4-methylcoumarin) following degradation of the substrate results in a fluorescent signal that is a measure of proteasome activity. The quantitative analysis of 20S proteasome activity was assayed as described.

[3] = tested on: Hsp70; test: Hsp70 Western blotting in MDA-435 cells; type: cell-based; conditions: 0.5 μM; for percentage change in Hsp70 expression relative to DMSO control: normalized to background and GAPDH
Protocol: Calculations of the percentage changes were made by using the automated band analysis tools of the Kodak 1D (v.3.6.3) program. Band intensities were normalized to background and GAPDH.
MDA-435 breast cancer cells were grown in 100 mm plastic-tissue culture dishes and treated for 6 and 24 hours with 0.5 μM Taxol, Compound 1, Taxol+Compound 1, MG132, ALLN, or DMSO. After treatment, cells were washed in PBS and cell lysates were prepared by adding 100 μL of lysis buffer, which contained 20 mM Tris-HCl (pH 7.5), 150 mM NaCl, 1 mM Na2EDTA, 1 mM EGTA, 1% Triton, 2.5 mM sodium pyrophosphate, 1 mM β-glycerophosphate, 1 mM Na3VO4 and 1 μg/ml leupeptin (Cell Signaling Technology, Beverly, Mass.) supplemented with 1 mM PMSF (Sigma, St. Louis, Mo.) immediately before use, on ice for 1 hour. After scraping, the lysates were cleared by centrifugation at 13,000 RPM for 10 minutes at 4° C. Protein content was determined using a Bradford assay and bovine serum albumin as a standard (Bio-Rad Laboratories, Hercules, Calif.). Samples were solubilized by boiling in SDS sample buffer and subjected to SDS-PAGE. The proteins were subsequently transferred to a PVDF membrane (Bio-Rad, Hercules, Calif.). After blocking with 5% nonfat milk in TBS for 1 hour, the blots were incubated with a mouse monoclonal anti-Hsp70 antibody, which is specific for the inducible form of Hsp70 (Clone C92F3A-5, 1:1000 dilution, Stressgen Biotechnologies Corp., Victoria, B.C., Canada) or a rabbit polyclonal anti-GAPDH antibody (1:2000 dilution, Abcam, Cambridge, Mass.) for 2 hours at room temperature. The horseradish-peroxidase-conjugated secondary antibodies, anti-mouse horse radish peroxidase, (1:2000, Bio-Rad, Hercules, Calif.) and goat anti-rabbit polyclonal horse radish peroxidase (1:2000, Abcam, Cambridge, Mass.)) were diluted in blocking buffer and incubated with the blot for 1 hour at room temperature. The secondary antibodies were detected by enhanced chemiluminescence (ECL, Amersham Biosciences, Piscataway, N.J.) and imaged using a Kodak 440 Image Station.

[4] = tested on: 26S proteasome; test: Proteasome-sensor cells (HEK-293, GFP chimera), fluorescence imaging; type: cell-based; conditions: HEK-293, 0.5 μM, 24 hours
From the text: Specifically, the proteasome-sensor cells are HEK-293 cells stably transfected with a vector (proteasome-sensor vector) that encodes naturally-occurring reef coral Zoanthus sp. green fluorescent protein (GFP) fused to a specific degradation motif that targets the fusion protein for removal by the 26S proteasome. The background fluorescence observed in normal cells with active proteasomes is low. When proteasomes are inhibited, the fluorescent protein quickly accumulates. […] Millennium Pharmaceuticals, Inc., Cambridge, Mass.). […] Velcade (Millennium Pharmaceuticals Inc.) was used as a positive control in this assay (at 5 nM, 50 nM, 500 nM or 5 μM). Velcade stock solution was prepared according to the manufacturer's instructions. GFP fluorescence of the cells was imaged at various time points using a standard filter for FITC with the Nikon TE300 microscope/digital imaging system described herein.

[5] = CHO cells, 10 μM, 8 hours post-treatment

Structure (SMILES): CN(NC(=O)CC(=O)NN(C)C(=S)c1ccccc1)C(=O)c1ccccc1 [Compound 3]
- accumulation of tubulin-YFP at the centrosomes ([1]; CHO cells, 5 μM, 4 hours): lack of accumulation of tubulin-YFP at the centrosomes

Structure (SMILES): CCC[C@@H](C=O)NC(=O)[C@H](CC(C)C)NC(=O)[C@H](CC(C)C)NC(=O)OCc1ccccc1 [MG115] (Cbz-Leu-Leu-[Nva]-aldehyde)
- accumulation of α-tubulin-YFP in the nucleus [1, 5]: caused the accumulation of YFP-tubulin in the nucleus
- accumulation of α-tubulin-YFP in the nucleus ([1]; CHO cells, 10 μM, 8 hours post-treatment, listed as MG-115): accumulation of α-tubulin-YFP in the nucleus
- accumulation of tubulin at the centrosomes versus in the nucleus (overall statement) [1]: both accumulation of tubulin at the centrosomes and in the nucleus

Structure (SMILES): CC(=O)N[C@@H](CSC(=O)[C@]1([C@@H](O)C(C)C)NC(=O)[C@H](C)[C@@H]1O)C(=O)O [Lactacystin]
- accumulation of α-tubulin-YFP at the centrosomes ([1]; CHO cells, 10 μM): accumulation of α-tubulin-YFP at the centrosomes and perinuclear regions
- accumulation of α-tubulin-YFP in the nucleus [1, 5]: accumulation of α-tubulin-YFP in the nucleus; also recorded: caused the accumulation of YFP-tubulin in the nucleus
- accumulation of tubulin-YFP at the centrosomes ([1]; CHO cells, 10 μM, 24 hours): accumulation of tubulin-YFP at the centrosomes
- accumulation of tubulin in the centrosomes (overall statement) [1]: caused accumulation of tubulin-YFP at the centrosomes and in the perinuclear region
- accumulation of tubulin at the centrosomes versus in the nucleus (overall statement) [1]: both accumulation of tubulin at the centrosomes and in the nucleus
- proteasome inhibitory activity in vitro (overall statement) [2]: exhibited proteasome inhibitory activity
- proteasome activity in vitro ([2]; 5 nM): detectable decrease in proteasome activity

Structure (SMILES): CCCC[C@@H](C=O)NC(=O)[C@H](CC(C)C)NC(=O)[C@H](CC(C)C)NC(C)=O [ALLN] (Ac-Leu-Leu-[Nle]-aldehyde)
- accumulation of α-tubulin-YFP at the centrosomes ([1]; CHO cells, 100 μM): accumulation of α-tubulin-YFP at the centrosomes and perinuclear regions
- accumulation of YFP-tubulin in the nucleus ([1]; CHO cells, 100 μM, 8 hours post-treatment): caused the accumulation of YFP-tubulin in the nucleus
- accumulation of tubulin-YFP at the centrosomes ([1]; CHO cells, 100 μM, 24 hours): accumulation of tubulin-YFP at the centrosomes
- accumulation of tubulin in the centrosomes (overall statement) [1]: caused accumulation of tubulin-YFP at the centrosomes and in the perinuclear region
- accumulation of tubulin at the centrosomes versus in the nucleus (overall statement) [1]: both accumulation of tubulin at the centrosomes and in the nucleus
- proteasome inhibitory activity in vitro (overall statement) [2]: exhibited proteasome inhibitory activity
- induction of Hsp70 expression ([3]; 6 and 24 hours): unable to induce expression of Hsp70; also recorded: not capable of inducing Hsp70 expression
- percentage change in Hsp70 expression relative to DMSO control ([3]; 6 hours of treatment): 82%
- percentage change in Hsp70 expression relative to DMSO control ([3]; 24 hours of treatment): 137%

Structure (SMILES): CC[C@H](C)[C@H](NC(=O)[C@H]([C@@H](C)CC)N(C)C(C)=O)C(=O)N[C@H](C(=O)N[C@@H](CC(C)C)C(=O)[C@@]1(C)CO1)[C@@H](C)O [Epoxomicin]
- accumulation of α-tubulin-YFP in the nucleus [1, 5]: accumulation of α-tubulin-YFP in the nucleus; also recorded: caused the accumulation of YFP-tubulin in the nucleus
- accumulation of tubulin at the centrosomes versus in the nucleus (overall statement) [1]: both accumulation of tubulin at the centrosomes and in the nucleus

Structure (SMILES): CC[C@]1(O)C[C@H]2CN(CCc3c([nH]c4ccccc34)[C@@](C(=O)OC)(c3cc4c(cc3OC)N(C=O)[C@H]3[C@@](O)(C(=O)OC)[C@H](OC(C)=O)[C@]5(CC)C=CCN6CC[C@]43[C@@H]65)C2)C1 [Vincristine]
- accumulation of tubulin-YFP at the centrosomes ([1]; CHO cells, 1 μM, 24 hours): lack of accumulation of tubulin-YFP at the centrosomes

Structure (SMILES): Cc1cc(NC(=O)C(=O)c2cc(Cc3ccc(C#N)cc3)n3ccccc23)sn1 [Compound 4]
- accumulation of tubulin-YFP at the centrosomes ([1]; CHO cells, 10 μM, 24 hours): lack of accumulation of tubulin-YFP at the centrosomes

Structure (SMILES): C/C1=C/C[C@@H](/C(C)=C/c2csc(C)n2)OC(=O)C[C@H](O)C(C)(C)C(=O)[C@H](C)[C@@H](O)[C@@H](C)CCC1 [Epothilone D]
- accumulation of tubulin-YFP at the centrosomes ([1]; CHO cells, 10 μM, 24 hours): lack of accumulation of tubulin-YFP at the centrosomes

Structure (SMILES): CC(C)[C@H](O)[C@@]12NC(=O)[C@H](C)[C@@H]1OC2=O [clasto-Lactacystin β-Lactone]
- accumulation of α-tubulin-YFP in the nucleus [1, 5]: accumulation of α-tubulin-YFP in the nucleus; also recorded: caused the accumulation of YFP-tubulin in the nucleus
- accumulation of tubulin at the centrosomes versus in the nucleus (overall statement) [1]: both accumulation of tubulin at the centrosomes and in the nucleus

Structure (SMILES): CN(NC(=O)CC(=O)NN(C)C(=S)c1ccccc1)C(=S)c1ccccc1 [Compound 2]
- proteasome inhibitory activity in vitro ([2]; 50 μM): neither Compound 1 nor its salt form, Compound 2, displayed significant proteasome inhibitory activity
- accumulation of proteasome-sensor protein in cells [4]: accumulation of proteasome-sensor protein in cells
